In patent US9414589B2, “N-cyclylamides as nematicides” (SYNGENTA PARTICIPATIONS AG, priority 2012, dated 2016):
One block for each compound: values may come before it.

How the values were obtained:
[1] = system: Meloidogyne spp. (Root-knot nematode); test: Meloidogyne spp. contact activity, preventive, drench test (cucumber in pots); assay type: in vivo, M. incognita; details: cis vs trans isomers
Procedure: (§1) Filter papers (9 cm×4.5 cm) with a small pocket were placed into plastic pouches (12 cm×6 cm). One cucumber cv. Toshka seed was placed in the centre of the filter paper pocket of all the pouches needed for a test. The cucumber seeds in the pouches were treated with test solutions at 200 ppm by pipetting the solution directly over the cucumber seed in the filter paper pocket in the pouch. Prior to application, the compound solution was prepared at twice the concentration required and the egg suspension is prepared with FORL nutrient solution with 3000 eggs/0.5 ml. After applying all the treatments, 3000 eggs (in 0.5 ml of FORL nutrient solution) were pipetted into the pouches. The pouches were incubated in a moist chamber for twelve days and watered regularly to maintain good filter paper moisture essential for the growing cucumber root system. After this period, the filter paper containing the germinated cucumber seedling was removed from the plastic pouch to assess the number of galls caused by Meloidogyne spp. per root system. […] Meloidogyne spp. (Root-knot nematode) contact activity, preventive, drench test. Cucumber cv. Toshka seeds were sown directly into pots filled with a sandy substrate. Six days later pots were each treated with 5 ml of a WP10 suspension of the test compound at 20 ppm. Hereafter pots were inoculated with 3000 eggs of M. incognita. The trial was harvested fourteen days after trial application and inoculation. Root galling was assessed according to Zeck's gall index (Zeck, 1971).

[2] = system: Meloidogyne spp. (Root-knot nematode); test: Meloidogyne spp. contact activity, preventive, pouch test (cucumber); assay type: in vivo; details: cucumber seed in pouch, test solutions at 200 ppm, galls per root system after twelve days; cis vs trans isomers
Procedure: as §1, with “Meloidogyne spp. (Root-knot nematode) contact activity, preventive. Pouch test. Filter” for “Filter”

Structure (SMILES): O=C(NC1CCC1c1ccc(Cl)cc1F)c1c(F)cccc1F (centres unmarked) [57.014]
Nem 2 (Meloidogyne spp. contact activity, preventive, drench test; % galling) [1]: 100% | Nem 1 (Meloidogyne spp. contact activity, preventive, pouch test; % galling) [2]: 93%

Structure (SMILES): O=C(NC1CCC1c1ccc(Cl)cc1Cl)c1cccnc1C(F)(F)F (centres unmarked) [57.011]
Nem 2 (Meloidogyne spp. contact activity, preventive, drench test; % galling) [1]: 100% | Nem 1 (Meloidogyne spp. contact activity, preventive, pouch test; % galling) [2]: 100%

Structure (SMILES): O=C(NC1CCC1c1ccc(Cl)cc1Cl)c1ncccn1 (centres unmarked) [57.012]
Nem 2 (Meloidogyne spp. contact activity, preventive, drench test; % galling) [1]: 83% | Nem 1 (Meloidogyne spp. contact activity, preventive, pouch test; % galling) [2]: 98%

melting point: 126 to 128 °C
Structure (SMILES): O=C(N[C@@H]1CCC1c1ccc(Cl)cc1Cl)c1ccccc1C(F)(F)F (some centres unmarked) [57.009]
Nem 1 (Meloidogyne spp. contact activity, preventive, pouch test; % galling) [2]: 100%

melting point: 147 to 148 °C
Structure (SMILES): O=C(N[C@H]1CCC1c1ccc(Cl)cc1Cl)c1ccccc1C(F)(F)F (stereo partly drawn) [57.009trans]
Nem 2 (Meloidogyne spp. contact activity, preventive, drench test; % galling) [1]: 48% | Nem 1 (Meloidogyne spp. contact activity, preventive, pouch test; % galling) [2]: 68%
